tested on: Gli-luciferase (firefly) reporter in SHh Light II cell line (NIH-3T3), Hedgehog pathway; assay: Light II Assay (SHh-Smo cell-based Gli-luciferase reporter assay); conditions: rSHh stimulated cells, 24 hours, % inhibition of luciferase signal
Experimental: The SHh-Smo assay is a cell-based reporter assay in the SHh Light II cell line (NIH-3T3), available through the American Tissue Culture Center (ATCC). […] In addition, this cell line contains a constitutively expressed renilla luciferase reporter (via CMV promoter) which can be used as a readout to detect any non-specific compound effects, including cytotoxicity.
Test compounds were serially diluted in DMSO and 1.5 μL aliquots were transferred to 384-well non-binding plates. Compounds were diluted with 85 μL of assay media (DMEM+0.5% FBS, 5 mM Hepes, 1% NEAA, 1% PenStrep, 0.8% Geneticin). Cell plates were prepared by adding 50 μL of assay media (240 cells/μL) to white TC coated 384-well plates (final cell concentration is 12,000 cells/well). Cell plates were incubated overnight at 37° C.
Media was removed from the cell plates and 30 μL of compound in assay media+rSHh (1.5 μg/well) was added to the cell plates. Plates were incubated at 37° C. for 24 hours. Following overnight incubation, media was aspirated from the cell plates and 20 μL of luciferase media (Bright-glo, Promega) was added to the cell. Cells were incubated for 5 minutes and measured on an Envision™ plate reader (Perkn Elmer) using the luciferase detection protocol. IC50 values were calculated as a percentage inhibition of luciferase signal from rSHh stimulated cells compared to unstimulated cells.

Row | SMILES | IC50
1 | Cc1ccc(CN2CCOCC2)cc1NC(=O)c1ccc(Nc2nc(-c3ccccc3)c3ccccc3n2)c(F)c1 [3-fluoro-N-[2-methyl-5-(morpholin-4-ylmethyl)phenyl]-4-[(4-phenylquinazolin-2-yl)amino]benzamide] | 6.2 nM
2 | Cc1cccc(C)c1NC(=O)c1ccc(Nc2nc(C3CC3)c3ccccc3n2)cc1 [4-[(4-cyclopropylquinazolin-2-yl)amino]-N-(2,6-dimethylphenyl)benzamide] | 2.8 nM
3 | O=C(c1ccccc1)N1CCC(Nc2nc(-c3ccccc3)c3ccccc3n2)CC1 [4-phenyl-N-[1-(phenylcarbonyl)piperidin-4-yl]quinazolin-2-amine] | 68.4 nM
4 | Cc1ccc(CN2CCOCC2)cc1NC(=O)c1ccc(Nc2nc(C(C)C)c3ccccc3n2)cc1 [4-{[4-(1-methylethyl)quinazolin-2-yl]amino}-N-[2-methyl-5-(morpholin-4-ylmethyl)phenyl]benzamide] | 17.8 nM
5 | Cc1cccc(C)c1NC(=O)c1cc(Nc2nc(-c3ccccc3)c3ccccc3n2)c(Cl)s1 [5-chloro-N-(2,6-dimethylphenyl)-4-[(4-phenylquinazolin-2-yl)amino]thiophene-2-carboxamide] | 166 nM
6 | Cc1cccc(C)c1NC(=O)c1ccc(Nc2nc3c(c(-c4ccccc4)n2)CCC3)cc1 [N-(2,6-dimethylphenyl)-4-[(4-phenyl-6,7-dihydro-5H-cyclopenta[d]pyrimidin-2-yl)amino]benzamide] | 25.8 nM
7 | Cc1cccc(C)c1NC(=O)c1ccc(Nc2nc(-c3ccccc3)c3cccnc3n2)cc1 [N-(2,6-dimethylphenyl)-4-[(4-phenylpyrido[2,3-d]pyrimidin-2-yl)amino]benzamide] | 3.6 nM
8 | Cc1cccc(C)c1NC(=O)c1ccc(Nc2nc3c(c(-c4ccccc4)n2)CN(Cc2ccccc2)CC3)cc1 [N-(2,6-dimethylphenyl)-4-{[4-phenyl-6-(phenylmethyl)-5,6,7,8-tetrahydropyrido[4,3-d]pyrimidin-2-yl]amino}benzamide] | 156 nM
9 | CN1CCc2ccc(NC(=O)c3ccc(Nc4nc(-c5ccccc5)c5ccccc5n4)cc3)cc2C1 [N-(2-methyl-1,2,3,4-tetrahydroisoquinolin-7-yl)-4-[(4-phenylquinazolin-2-yl)amino]benzamide] | 5.8 nM
10 | Cc1ccc(CN(C)Cc2ccccc2)cc1NC(=O)c1ccc(Nc2nc(C)c3ccccc3n2)cc1 [N-(2-methyl-5-{[methyl(phenylmethyl)amino]methyl}phenyl)-4-[(4-methylquinazolin-2-yl)amino]benzamide] | 3.4 nM
11 | Cc1ccc(C(=O)NCCN(C)C)cc1NC(=O)c1ccc(Nc2nc(-c3ccccc3)c3ccccc3n2)cc1 [N-[2-(dimethylamino)ethyl]-4-methyl-3-[({4-[(4-phenylquinazolin-2-yl)amino]phenyl}carbonyl)amino]benzamide] | 16.4 nM
12 | Cc1ccc(-c2ccn[nH]2)cc1NC(=O)c1ccc(Nc2nc(-c3ccccc3)c3ccccc3n2)cc1 [N-[2-methyl-5-(1H-pyrazol-5-yl)phenyl]-4-[(4-phenylquinazolin-2-yl)amino]benzamide] | 6.3 nM
13 | Cc1ccc(OCCN2CCOCC2)cc1NC(=O)c1ccc(Nc2nc(-c3ccccc3)c3ccccc3n2)cc1 [N-{2-methyl-5-[(2-morpholin-4-ylethyl)oxy]phenyl}-4-[(4-phenylquinazolin-2-yl)amino]benzamide] | 6.2 nM
14 | CN(C)Cc1cccc(NC(=O)c2ccc(Nc3nc(-c4ccccc4)c4ccccc4n3)cc2)c1 [N-{3-[(dimethylamino)methyl]phenyl}-4-[(4-phenylquinazolin-2-yl)amino]benzamide] | 6.1 nM
15 | CCN1CCN(C(=O)c2ccc(C)c(NC(=O)c3ccc(Nc4nc(-c5ccccc5)c5ccccc5n4)cc3)c2)CC1 [N-{5-[(4-ethylpiperazin-1-yl)carbonyl]-2-methylphenyl}-4-[(4-phenylquinazolin-2-yl)amino]benzamide] | 23.9 nM
16 | Cc1ccc(CN(C)C)cc1NC(=O)c1ccc(Nc2nc(-c3cccs3)c3ccccc3n2)cc1 [N-{5-[(dimethylamino)methyl]-2-methylphenyl}-4-{[4-(2-thienyl)quinazolin-2-yl]amino}benzamide] | 21 nM

— patent publication US8222263B2, “Inhibitors of hedgehog pathway” (Exelixis Patent Company LLC, priority 2007, dated 2012)
